From US12187723B2 (BRISTOL-MYERS SQUIBB COMPANY, priority 2019, dated 2025)

How the values were obtained:
human TLR9 = molecular target: T1, human TLR9 (Homo sapiens, UniProt Q9NR96); assay: TLR9 inhibition reporter assay (HEK-Blue SEAP); assay type: cell-based; conditions: HEK-Blue cells overexpressing human TLR9, ODN2006 5 nM, 22 hour incubation
T1 construct: host or cells: HEK-Blue cells
T1 sequence (Q9NR96 26-1032): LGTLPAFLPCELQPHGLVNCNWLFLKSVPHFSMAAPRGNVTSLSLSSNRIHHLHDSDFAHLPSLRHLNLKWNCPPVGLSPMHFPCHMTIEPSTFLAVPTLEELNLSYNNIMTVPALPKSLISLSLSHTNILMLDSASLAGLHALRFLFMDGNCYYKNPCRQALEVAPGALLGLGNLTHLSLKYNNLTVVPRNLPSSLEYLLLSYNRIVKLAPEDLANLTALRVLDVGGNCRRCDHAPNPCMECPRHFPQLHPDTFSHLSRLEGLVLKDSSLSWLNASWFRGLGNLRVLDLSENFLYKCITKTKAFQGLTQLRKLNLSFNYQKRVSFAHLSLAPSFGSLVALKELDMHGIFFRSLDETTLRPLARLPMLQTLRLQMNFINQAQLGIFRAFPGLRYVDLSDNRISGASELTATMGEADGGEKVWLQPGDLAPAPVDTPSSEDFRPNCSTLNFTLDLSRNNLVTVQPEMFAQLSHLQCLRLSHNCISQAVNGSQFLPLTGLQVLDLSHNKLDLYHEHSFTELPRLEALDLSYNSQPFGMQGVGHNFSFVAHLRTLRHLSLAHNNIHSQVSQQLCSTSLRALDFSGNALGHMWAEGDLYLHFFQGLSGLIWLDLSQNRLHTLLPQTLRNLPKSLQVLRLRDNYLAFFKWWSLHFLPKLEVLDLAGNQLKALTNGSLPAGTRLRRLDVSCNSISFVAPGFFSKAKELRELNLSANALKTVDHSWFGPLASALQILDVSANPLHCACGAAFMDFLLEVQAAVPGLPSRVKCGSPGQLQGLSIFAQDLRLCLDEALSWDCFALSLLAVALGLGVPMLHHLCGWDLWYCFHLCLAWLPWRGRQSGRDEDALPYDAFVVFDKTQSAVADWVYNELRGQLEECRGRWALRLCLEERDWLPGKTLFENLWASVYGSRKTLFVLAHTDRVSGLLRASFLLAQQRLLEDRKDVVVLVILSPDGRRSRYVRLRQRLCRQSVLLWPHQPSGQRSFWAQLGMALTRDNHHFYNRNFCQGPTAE
Procedure, shortened: (§1)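 Agonists used: gardiquimod 7.5 μM (TLR7), R848 15.9 μM (TLR8), ODN2006 5 nM (TLR9), added after 30 min room-temperature compound pre-treatment (0.05 nM–50 μM) of receptor-overexpressing HEK-Blue cells. SEAP reporter (NF-κB/AP-1 driven) read after 22 h at 37 °C; inhibition scaled between agonist+DMSO and reference-inhibitor wells.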

human TLR8 = molecular target: T2, human TLR8 (Homo sapiens, UniProt Q9NR97); assay: TLR8 inhibition reporter assay (HEK-Blue SEAP); assay type: cell-based; conditions: HEK-Blue cells overexpressing human TLR8, R848 15.9 μM, 22 hour incubation
T2 construct: host or cells: HEK-Blue cells
T2 sequence (Q9NR97 27-1041): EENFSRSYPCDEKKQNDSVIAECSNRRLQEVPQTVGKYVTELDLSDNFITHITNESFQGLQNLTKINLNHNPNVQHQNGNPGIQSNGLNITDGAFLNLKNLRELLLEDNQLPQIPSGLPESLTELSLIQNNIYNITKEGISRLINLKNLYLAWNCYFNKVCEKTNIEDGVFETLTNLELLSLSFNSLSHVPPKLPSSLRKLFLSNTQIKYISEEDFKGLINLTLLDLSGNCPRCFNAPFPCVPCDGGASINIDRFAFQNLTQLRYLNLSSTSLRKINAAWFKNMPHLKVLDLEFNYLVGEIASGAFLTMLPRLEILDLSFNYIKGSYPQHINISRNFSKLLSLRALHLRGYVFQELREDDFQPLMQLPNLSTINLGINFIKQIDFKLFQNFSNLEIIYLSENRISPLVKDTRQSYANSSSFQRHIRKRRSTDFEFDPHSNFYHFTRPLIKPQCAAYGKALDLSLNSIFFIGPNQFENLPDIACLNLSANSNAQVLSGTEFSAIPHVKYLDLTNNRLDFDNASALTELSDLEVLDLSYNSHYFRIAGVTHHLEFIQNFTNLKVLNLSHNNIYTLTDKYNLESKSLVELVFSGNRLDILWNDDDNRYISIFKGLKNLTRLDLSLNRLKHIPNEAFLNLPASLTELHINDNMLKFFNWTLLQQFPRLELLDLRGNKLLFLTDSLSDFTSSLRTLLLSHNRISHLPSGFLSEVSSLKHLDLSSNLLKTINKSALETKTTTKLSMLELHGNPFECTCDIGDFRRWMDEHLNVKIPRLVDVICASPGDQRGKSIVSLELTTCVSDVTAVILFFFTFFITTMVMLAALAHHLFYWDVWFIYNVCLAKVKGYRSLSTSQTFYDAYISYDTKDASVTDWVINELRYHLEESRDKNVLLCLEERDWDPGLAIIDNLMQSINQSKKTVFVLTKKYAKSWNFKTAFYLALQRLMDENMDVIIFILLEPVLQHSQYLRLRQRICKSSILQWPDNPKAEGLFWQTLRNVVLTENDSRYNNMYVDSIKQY
Procedure, shortened: as §1

IC50 (human TLR9)	IC50 (human TLR8)	SMILES
2130 nM	0.15 nM	CCC(CC)CN[C@H]1CC[C@@H](n2c(=O)[nH]c3cc(-c4cn5ncnc5c(C)c4C)c(C(C)C)cc32)CC1 [Example 198]
> 50000 nM	5.49 nM	COc1c(C)c(-c2cc3[nH]c(=O)n(C4CCC(N5CCC(F)(F)CC5)CC4)c3cc2C(C)C)cn2ncnc12 (single isomer, unassigned) [Example 230, 1-(4-(4,4-difluoropiperidin-1-yl)cyclohexyl)-6-isopropyl-5-(8-methoxy-7-methyl-[1,2,4]triazolo[1,5-a]pyridin-6-yl)-1,3-dihydro-2H-benzo[d]imidazol-2-one]
15200 nM	4.42 nM	CCc1cc2c(cc1-c1cc(OC)c3ncnn3c1)[nH]c(=O)n2[C@@H]1CCCN(CCOC)C1 [Example 227, (R)-6-ethyl-5-(8-methoxy-[1,2,4]triazolo[1,5-a]pyridin-6-yl)-1-(1-(2-methoxyethyl)piperidin-3-yl)-1,3-dihydro-2H-benzo[d]imidazol-2-one]
13900 nM	0.27 nM	CCCN[C@H]1CC[C@@H](n2c(=O)[nH]c3cc(-c4cc(OC)c5ncnn5c4)c(C(C)C)cc32)CC1 [Example 195, 6-isopropyl-5-(8-methoxy-[1,2,4]triazolo[1,5-a]pyridin-6-yl)-1-((1 s,4s)-4-(propylamino)cyclohexyl)-1,3-dihydro-2H-benzo[d]imidazol-2-one]
15100 nM	0.81 nM	COc1cc(-c2cc3[nH]c(=O)n(C4CCC(N5CCCC5)CC4)c3cc2C(C)C)cn2ncnc12 (stereo not shown) [Example 231, 6-isopropyl-5-(8-methoxy-[1,2,4]triazolo[1,5-a]pyridin-6-yl)-1-(4-(pyrrolidin-1-yl)cyclohexyl)-1,3-dihydro-2H-benzo[d]imidazol-2-one]
> 50000 nM	10.5 nM	COc1cc(-c2cc3[nH]c(=O)n(C4CCC(N5CCNC(=O)C5)CC4)c3cc2C(C)C)cn2ncnc12 (single isomer, unassigned) [Example 234, 6-isopropyl-5-(8-methoxy-[1,2,4]triazolo[1,5-a]pyridin-6-yl)-1-(4-(3-oxopiperazin-1-yl)cyclohexyl)-1,3-dihydro-2H-benzo[d]imidazol-2-one]
> 50000 nM	155 nM	Cc1cc2c(cc1-c1cc(C)c3ncnn3c1)[nH]c(=O)n2[C@H]1CCCN(C2COC2)C1 [Example 14, (S)-6-methyl-5-(8-methyl-[1,2,4]triazolo[1,5-a]pyridin-6-yl)-1-(1-(oxetan-3-yl)piperidin-3-yl)-1,3-dihydro-2H-benzo[d]imidazol-2-one]
> 50000 nM	4.4 nM	CCc1cc2c(cc1-c1cc(OC)c3ncnn3c1)[nH]c(=O)n2[C@@H]1CCCN(C2CCOC2)C1 (stereo partly drawn) [Example 212, 6-ethyl-5-(8-methoxy-[1,2,4]triazolo[1,5-a]pyridin-6-yl)-1-((3R)-1-(tetrahydrofuran-3-yl)piperidin-3-yl)-1,3-dihydro-2H-benzo[d]imidazol-2-one]
7050 nM	0.13 nM	Cc1c(-c2cc3[nH]c(=O)n([C@H]4CC[C@@H](NCC5CCOCC5)CC4)c3cc2C(C)C)cn2ncnc2c1C [Example 200, 5-(7,8-dimethyl-[1,2,4]triazolo[1,5-a]pyridin-6-yl)-6-isopropyl-1-((1s,4s)-4-(((tetrahydro-2H-pyran-4-yl)methyl)amino)cyclohexyl)-1,3-dihydro-2H-benzo[d]imidazol-2-one]
7070 nM	0.36 nM	Cc1c(-c2cc3[nH]c(=O)n([C@H]4CC[C@@H](N(C)C)CC4)c3cc2C(C)C)cn2ncnc2c1C [Example 185, 5-(7,8-dimethyl-[1,2,4]triazolo[1,5-a]pyridin-6-yl)-1-((1s,4s)-4-(dimethylamino)cyclohexyl)-6-isopropyl-1,3-dihydro-2H-benzo[d]imidazol-2-one]
> 50000 nM	26.4 nM	COc1cc(-c2cc3[nH]c(=O)n([C@@H]4CCCN(C5CCOC5)C4)c3cc2C(C)C)cn2ncnc12 (stereo partly drawn) [Example 216, 6-isopropyl-5-(8-methoxy-[1,2,4]triazolo[1,5-a]pyridin-6-yl)-1-((3R)-1-(tetrahydrofuran-3-yl)piperidin-3-yl)-1,3-dihydro-2H-benzo[d]imidazol-2-one]
8950 nM	31.4 nM	CCN1CCC[C@@H](n2c(=O)[nH]c3cc(-c4cc(C)c5ncnn5c4)c(C)cc32)C1 [Example 16, (R)-1-(1-ethylpiperidin-3-yl)-6-methyl-5-(8-methyl-[1,2,4]triazolo[1,5-a]pyridin-6-yl)-1,3-dihydro-2H-benzo[d]imidazol-2-one]
2360 nM	3.3 nM	COc1cc(-c2cc3[nH]c(=O)n([C@@H]4CCCN(CCC(C)(C)C)C4)c3cc2C(C)C)cn2ncnc12 [Example 210, (R)-1-(1-(3,3-dimethylbutyl)piperidin-3-yl)-6-isopropyl-5-(8-methoxy-[1,2,4]triazolo[1,5-a]pyridin-6-yl)-1,3-dihydro-2H-benzo[d]imidazol-2-one]
> 50000 nM	1.9 nM	COc1cc(-c2cc3[nH]c(=O)n(C4CCC(N5CCNC(=O)C5)CC4)c3cc2C(C)C)cn2ncnc12 (single isomer, unassigned) [Example 233, 6-isopropyl-5-(8-methoxy-[1,2,4]triazolo[1,5-a]pyridin-6-yl)-1-(4-(3-oxopiperazin-1-yl)cyclohexyl)-1,3-dihydro-2H-benzo[d]imidazol-2-one]
8090 nM	0.26 nM	COc1cc(-c2cc3[nH]c(=O)n(C4CCC(N5CC(OC)C5)CC4)c3cc2C(C)C)cn2ncnc12 (stereo not shown) [Example 238, 6-isopropyl-5-(8-methoxy-[1,2,4]triazolo[1,5-a]pyridin-6-yl)-1-(4-(3-methoxyazetidin-1-yl)cyclohexyl)-1,3-dihydro-2H-benzo[d]imidazol-2-one]
> 50000 nM	100 nM	COc1cc(-c2cc3[nH]c(=O)n([C@H]4CCCN(CC(N)=O)C4)c3cc2C(C)C)cn2ncnc12 [Example 220, (S)-2-(3-(6-isopropyl-5-(8-methoxy-[1,2,4]triazolo[1,5-a]pyridin-6-yl)-2-oxo-2,3-dihydro-1H-benzo[d]imidazol-1-yl)piperidin-1-yl)acetamide]
> 50000 nM	5.4 nM	COc1cc(-c2cc3[nH]c(=O)n([C@@H]4CCCN(C5CCOC5)C4)c3cc2C(C)C)cn2ncnc12 (stereo partly drawn) [Example 217, 6-isopropyl-5-(8-methoxy-[1,2,4]triazolo[1,5-a]pyridin-6-yl)-1-((3R)-1-(tetrahydrofuran-3-yl)piperidin-3-yl)-1,3-dihydro-2H-benzo[d]imidazol-2-one]
